Assay results published in the supplement of paper PMC10307832.

Assays:
Assay in all cases: relative viability (nuclei count vs DMSO), 5 days (fraction); higher = more cells survive
KN-93 + Crizotinib = compound: CN(C/C=C/C1=CC=C(C=C1)Cl)CC2=CC=CC=C2N(CCO)S(=O)(=O)C3=CC=C(C=C3)OC [KN-93] + C[C@@H](Oc1cc(-c2cnn(C3CCNCC3)c2)cnc1N)c1c(Cl)ccc(F)c1Cl [Crizotinib] (partner 1 µM)
Outline: (§1)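 Nuclei were stained with Hoechst during a one-step fixation (final 0.05% Triton X-100, 1% formaldehyde, 1 ug/ml Hoechst) carried out 5 days after dosing, then counted on 4× images. The cells, lung cancer lines in 1536-well plates, had been dosed by pin tool the day after seeding with one drug alone or a fixed anchor-drug dose plus five library-drug doses (not always all listed) in √10 steps. Relative viability is the nuclei count in treated wells divided by that in vehicle wells, and each value is the median of duplicate plates.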

KN-93 + Alpelisib = compound: CN(C/C=C/C1=CC=C(C=C1)Cl)CC2=CC=CC=C2N(CCO)S(=O)(=O)C3=CC=C(C=C3)OC [KN-93] + Cc1nc(NC(=O)N2CCC[C@H]2C(N)=O)sc1-c1ccnc(C(C)(C)C(F)(F)F)c1 [Alpelisib] (partner 2 µM)
Outline: as §1

KN-93 + Linsitinib = compound: CN(C/C=C/C1=CC=C(C=C1)Cl)CC2=CC=CC=C2N(CCO)S(=O)(=O)C3=CC=C(C=C3)OC [KN-93] + C[C@]1(O)C[C@@H](c2nc(-c3ccc4ccc(-c5ccccc5)nc4c3)c3c(N)nccn32)C1 [Linsitinib] (partner 1 µM)
Outline: as §1

KN-93 + Pictilisib = compound: CN(C/C=C/C1=CC=C(C=C1)Cl)CC2=CC=CC=C2N(CCO)S(=O)(=O)C3=CC=C(C=C3)OC [KN-93] + CS(=O)(=O)N1CCN(Cc2cc3nc(-c4cccc5[nH]ncc45)nc(N4CCOCC4)c3s2)CC1 [Pictilisib] (partner 1 µM)
Outline: as §1

KN-93 + Bortezomib = compound: CN(C/C=C/C1=CC=C(C=C1)Cl)CC2=CC=CC=C2N(CCO)S(=O)(=O)C3=CC=C(C=C3)OC [KN-93] + CC(C)C[C@H](NC(=O)[C@H](Cc1ccccc1)NC(=O)c1cnccn1)B(O)O [Bortezomib] (partner 0.002 µM)
Outline: as §1

Cell Line	relative viability (KN-93 + Crizotinib; first compound 0.08 µM)	relative viability (KN-93 + Crizotinib; first compound 0.253 µM)	relative viability (KN-93 + Crizotinib; first compound 2.53 µM)	relative viability (KN-93 + Crizotinib; first compound 8 µM)	relative viability (KN-93 + Alpelisib; first compound 0.08 µM)	relative viability (KN-93 + Alpelisib; first compound 0.253 µM)	relative viability (KN-93 + Alpelisib; first compound 2.53 µM)	relative viability (KN-93 + Alpelisib; first compound 8 µM)	relative viability (KN-93 + Linsitinib; first compound 0.08 µM)	relative viability (KN-93 + Linsitinib; first compound 0.253 µM)	relative viability (KN-93 + Linsitinib; first compound 2.53 µM)	relative viability (KN-93 + Linsitinib; first compound 8 µM)	relative viability (KN-93 + Pictilisib; first compound 0.08 µM)	relative viability (KN-93 + Pictilisib; first compound 0.253 µM)	relative viability (KN-93 + Pictilisib; first compound 2.53 µM)	relative viability (KN-93 + Pictilisib; first compound 8 µM)	relative viability (KN-93 + Bortezomib; first compound 0.08 µM)	relative viability (KN-93 + Bortezomib; first compound 2.53 µM)	relative viability (KN-93 + Bortezomib; first compound 8 µM)	relative viability (KN-93 + Bortezomib; first compound 0.253 µM)
HCC-78	0.336	0.312	0.37	0.312	0.385	0.276	0.393	0.212	0.489	0.507	0.549	0.374	0.251	0.185	0.193	0.182	0.462	0.37	0.531	
HCC-366		0.609	0.68	0.129		0.394	0.507	0.172		0.706	0.844	0.334	0.117	0.0961	0.134	0.107		1.57	0.955	1.48
HCC-827	0.993	0.996	0.908	0.778	0.959	0.985	0.962	0.755	1.02	0.921	0.939	0.875	1.08	0.982	1.03	0.986	1.01	0.972	0.872	1.11
HOP-62	0.936	1.09	1.15	0.952	1.1	1.22	1.22	0.866	0.938	1.15	1.12	0.982	0.626	0.741	0.968	0.428	0.442	0.958	0.711	1.28
IA-LM	0.745	0.822	0.975	0.431	0.765	0.746	0.773	0.778	0.608	0.495	0.463	0.827	0.27	0.309	0.767	0.349	0.738	0.991	0.481	0.875
LC-2-ad	0.453	0.459	0.474	0.43	0.815	0.945	0.84	0.53	0.824	0.906	0.856	0.566	0.313	0.373	0.368	0.187	0.975	1.22	0.446	0.998
LCLC-97TM1	0.321		0.379	0.255	0.282		0.217	0.206	0.162		0.2	0.142	0.176		0.182	0.156	0.636	0.906	0.466	0.576
LCLC-103H	1.06	1.13	1.08	0.776	1	0.994	0.92	0.861	1.17	1.05	0.963	0.877	0.617	0.581	0.614	0.537	0.968	1.16	0.949	1.07
LK-2	0.214	0.199	0.216	0.27	0.905	1.51	1.32	0.673	0.605	0.609	0.634	0.479	0.683	0.679	0.725	0.314				
